Data set [1] concerns the target sterol-24-methyl transferase (Candida albicans, UniProt O74198). The class given is biochemical. The conditions noted are these: in vitro, read-out: Relative Activity (IC50 class). The text has this: Moreover, the relative activity for sterol-24-methyl transferase of the above compound in Table 11 is described in Table 13.
The test system of data set [2] is Candida albicans(KCTC 1940), Aspergillus niger (ATCC 9642) and Saccharomyces cerevisiae. Briefly: Relative antifungal activity by agar dilution method (vs Miconazole).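 Also: scores 5 to 7 mean a lower fungicidal concentration than Miconazole so higher is more potent.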 The class given is cell-based. The text has this:
Novel compounds represented by the above chemical formula (I), and the relative activities in accordance with the agar dilution method in Sabouraud dextrose agar media, Czapek agar media and Yeast Extract-Peptone-Dextrose agar media for Candida albicans(KCTC 1940), Aspergillus niger (ATCC 9642) and Saccharomyces cerevisiae are described respectively in following Table 1.
(Agar dilution tests growth on a series of plates holding different concentrations.)

Another data set relates to various kinds of Candida. Briefly: MIC (Minimal Inhibitory Concentration) data. In kind it is cell-based. As to conditions: unit assumed.
Data set [3] can be described thus: Oral toxicity test (general symptoms, weight change, lethal case). The conditions noted are these: for LD50: SD, rat, in vivo, 1000 mg/kg, rats, oral, read-out: Acute toxicity LD50; for general symptom / lethal case / weight change: oral, 1,000 mg/kg, suspended in propylene glycol, SD rats. In kind it is in vivo, rats (SD). The method, then: Meanwhile, the toxicity test of the compound in table II of the present invention was performed using […]. The compound was suspended in propylene glycol. The resulting suspension was medicated respectively on 6 female rats and 5 male rats (SD) of which age are 5 weeks, via oral after 12 hours starvation. The general symptoms, weight change and lethal case of the above rats were investigated.
In cases of the tests of the compounds (Compound No. 12, 119, 134, 148, 150)(delivery of 1,000 mg/kg), the general symptom and weight change were normal and the lethal case was not observed.

The test system of data set [4] is cultured lung cells derived from chinese hamster. Kind of data set: Chromosome aberration test. In kind it is cell-based.
For a further data set, the system named is salmonella typhimurium. Briefly: Bacterial reverse mutation test (Ames test). In kind it is cell-based. (In the Ames test, an excess of revertant colonies over the control signals mutagenicity.)
The nature of a further data set: Micronucleus test. In kind it is in vivo. The conditions noted are these: for Genetic toxicity Nucleus test: male ICR mice; for micronucleus test result: mouse, in vivo.
The mark [5] stands for this setting: agar dilution method, fungicidal concentration relative to control drug Miconazole (=4).
[6] abbreviates: antifungal activity relative to Miconazole, agar dilution.

From patent US20090221829A1 (priority 2005, published 2009) come the findings set out here.

Like-named read-outs stand apart in the source and are kept apart here. A value given as a limit tells only on which side of the number the result lay.

Chain of sterol-24-methyl transferase (O74198 whole entry): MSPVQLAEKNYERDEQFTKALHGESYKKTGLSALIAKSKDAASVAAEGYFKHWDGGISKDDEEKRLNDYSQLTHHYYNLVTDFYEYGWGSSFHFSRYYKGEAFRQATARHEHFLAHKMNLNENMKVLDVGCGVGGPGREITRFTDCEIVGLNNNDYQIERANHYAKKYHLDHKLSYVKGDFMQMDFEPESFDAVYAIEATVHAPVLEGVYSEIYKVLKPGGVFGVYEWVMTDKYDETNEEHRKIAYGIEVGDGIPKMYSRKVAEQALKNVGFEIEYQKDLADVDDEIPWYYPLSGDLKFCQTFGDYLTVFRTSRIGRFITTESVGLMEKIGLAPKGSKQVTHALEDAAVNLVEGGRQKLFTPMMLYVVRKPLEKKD

Regarding `CCCCCCCCCCCC1=[N+](Cc2ccc(C(C)(C)C)cc2)CCc2cc3c(cc21)oc(=O)n3C.[Br-]` [Compound No. 115, 7,8-dihydro-1-methyl-6-(4-t-butylphenyl)methyl-5-undecyloxazolo[4,5-g]isoquinolinium-2 (1H)-one bromide], the IC50 in data set [1] is 5 to 50 µM. Besides, the “Relative Activity” value in data set [2] (setting [5]) came to 2.
As to `CCCCCCCCCCCC1=[N+](c2ccc(C(C)(C)C)cc2)CCc2cc(CNC(=O)OCC)ccc21.[Br-]` [Compound No. 118, ethyl 3,4-dihydro-2-(4-t-butylphenyl)-1-undecylisoquinolinium-6-ylmethylcabamate bromide], the half-maximal inhibitory concentration (IC50) in data set [1] lay in the range of 5 to 50 µM. Besides, in data set [2] (setting [5]), the “Relative Activity” value came out at 2.
`CCCCCCCCCCCC1=[N+](Cc2ccc(NC(=O)OC(C)(C)C)cc2)CCc2cc(OC)c(OC)cc21.[Cl-]` [Compound No. 120, 2-(4-t-butylalcoholcarbonylaminophenyl)methyl-3,4-dihydro-6,7-dimethoxy-1-undecylisoquinolinium chloride]: the IC50 in data set [1] is < 5 µM. Further, the MIC in the data set with various kinds of Candida (C. albicans ATCC 11651) came out at 1.56 µg/mL; against various kinds of Candida (C. albicans ATCC 28838), 1.56 µg/mL; against various kinds of Candida (C. albicans IFO 1385), 3.12 µg/mL; in the data set with various kinds of Candida (C. albicans OY-003), 1.56 µg/mL; in the data set with various kinds of Candida (C. albicans OY-019), 3.12 µg/mL; against various kinds of Candida (C. albicans U.K), 1.56 µg/mL. For the same compound, the minimum inhibitory concentration (MIC) amounted to 6.25 µg/mL in the data set on various kinds of Candida (C. glabrata), 3.12 µg/mL with various kinds of Candida (C. glulliermondi), 1.56 µg/mL against various kinds of Candida (C. krusei (KCTC7273)) and 3.12 µg/mL in the data set with various kinds of Candida (C. parapsilosis).
`CCCCCCCCCCCC1=[N+](Cc2ccc(N)cc2)CCc2cc(OC)c(OC)cc21.Cl.[Cl-]` [Compound No. 121, 3,4-dihydro-6,7-dimethoxy-2-(4-ammoniumphenyl)methyl-1-undecylisoquinolinium dichloride]: the 50% inhibitory concentration (IC50) in data set [1] fell in the range of 5 to 50 µM. The “Relative Activity” value in data set [2] (setting [5]) was found to be 2. Also, the MIC amounted to 3.12 µg/mL against various kinds of Candida (C. albicans ATCC 11651); 0.78 µg/mL against various kinds of Candida (C. albicans ATCC 28838); 1.56 µg/mL in the data set with various kinds of Candida (C. albicans IFO 1385); 3.12 µg/mL in the data set on various kinds of Candida (C. albicans OY-003); 3.12 µg/mL in the data set on various kinds of Candida (C. albicans OY-019); 3.12 µg/mL in the data set on various kinds of Candida (C. albicans U.K). Also, the MIC in the data set with various kinds of Candida (C. glabrata) was 1.56 µg/mL; in the data set with various kinds of Candida (C. glulliermondi), 0.78 µg/mL; against various kinds of Candida (C. krusei (KCTC7273)) it was 1.56 µg/mL; against various kinds of Candida (C. parapsilosis), 1.56 µg/mL.
On to `CCCCCCCCOc1c(C[n+]2ccc3cc(OC)c(OC)cc3c2CCc2ccc(C(C)(C)C)cc2)cccc1OC` [Compound No. 148, 1-(2-(4-t-butylphenyl))ethyl-2-(2-octyloxy)-3-dimethoxyphenyl)methyl-6,7-dimethoxyisoquinolinium chloride], for which the LD50 was > 1200 mg/kg in data set [3] (female) and > 1500 mg/kg in data set [3] (male). Also, the general symptom result in data set [3] is recorded as “normal”. Also, in data set [3], the lethal case result is reported as “not observed”. Further, the weight change result in data set [3] is recorded as “normal”. For the same compound, in data set [4], the “Genetic toxicity Chromosome abmormality test” value is reported as “negative”. The “chromosome aberration test result” value in data set [4] is given as “negative”. Besides, the “Relative Activity” value in data set [2] (setting [6]) worked out at 1. Besides, the minimal inhibitory concentration (MIC) against various kinds of Candida (C. albicans ATCC 11651), against various kinds of Candida (C. albicans ATCC 28838), with various kinds of Candida (C. albicans IFO 1385), in the data set with various kinds of Candida (C. albicans OY-003), in the data set on various kinds of Candida (C. albicans OY-019) and in the data set on various kinds of Candida (C. albicans U.K) was 1.56 µg/mL in each case. The MIC in the data set with various kinds of Candida (C. albicnas ATCC 10231) turned out to be 0.78 µg/mL; with various kinds of Candida (C. glabrata) it was 3.12 µg/mL; in the data set with various kinds of Candida (C. glulliermondi), 1.56 µg/mL; against various kinds of Candida (C. krusei (KCTC7273)), 1.56 µg/mL; against various kinds of Candida (C. parapsilosis), 3.12 µg/mL. Besides, the “Genetic toxicity AMES test” value with salmonella typhimurium is on record as “negative”. The “bacterial reverse mutation test (Ames test) result” value in the data set with salmonella typhimurium is on record as “negative”. Moreover, in “Micronucleus test”, the “Genetic toxicity Nucleus test” value is recorded as “negative”. Besides, the micronucleus test result in the data set “Micronucleus test” is on record as “negative”.
For `COc1cc2cc[n+](Cc3cccc(OC)c3OCc3c(F)cccc3Cl)c(CCc3ccc(C(C)(C)C)cc3)c2cc1OC` [Compound No. 150, 1-(2-(4-t-butylphenyl))ethyl-2-(2-(2-chloro-6-fluorobenzyloxy)-3-methoxyphenyl)methyl-6,7-dimethoxyisoquinolinium chloride], the 50% lethal dose (LD50) in data set [3] (female) was > 1500 mg/kg; in data set [3] (male) it was > 2000 mg/kg. Further, in data set [3], the general symptom result was “normal”. Also, the lethal case result in data set [3] was “not observed”. In addition, in data set [3], the weight change result was “normal”. For the same compound, the “Genetic toxicity Chromosome abmormality test” value in data set [4] was “negative”. Moreover, the “chromosome aberration test result” value in data set [4] is on record as “negative”. Moreover, the “Relative Activity” value in data set [2] (setting [6]) is recorded as 1. The MIC in the data set with various kinds of Candida (C. albicans ATCC 11651) came out at 1.56 µg/mL; with various kinds of Candida (C. albicans ATCC 28838) it was 1.56 µg/mL; in the data set with various kinds of Candida (C. albicans IFO 1385), 6.25 µg/mL; in the data set with various kinds of Candida (C. albicans OY-003) it was 0.78 µg/mL; in the data set with various kinds of Candida (C. albicans OY-019), 1.56 µg/mL; in the data set on various kinds of Candida (C. albicans U.K), 0.78 µg/mL. In addition, the minimal inhibitory concentration (MIC) with various kinds of Candida (C. glabrata) turned out to be 12.5 µg/mL; in the data set on various kinds of Candida (C. glulliermondi), 1.6 µg/mL; in the data set with various kinds of Candida (C. krusei (KCTC7273)), 1.56 µg/mL; against various kinds of Candida (C. parapsilosis), 12.5 µg/mL. In addition, the “Genetic toxicity AMES test” value in the data set with salmonella typhimurium is given as “negative”. Further, in the data set on salmonella typhimurium, the “bacterial reverse mutation test (Ames test) result” value is “negative”. In addition, the “Genetic toxicity Nucleus test” value in the data set “Micronucleus test” is listed as “negative”. In addition, the micronucleus test result in “Micronucleus test” was “negative”.
Regarding `COc1cc2cc[n+](Cc3cccc(OC)c3OCc3c(F)c(F)c(C(F)(F)F)c(F)c3F)c(CCc3ccc(C(C)(C)C)cc3)c2cc1OC.[Cl-]` [Compound No. 151, 1-(2-(4-t-butylphenyl))ethyl-2-(2-(2,3,5,6-tetrafluoro-4-trifluoromethylbenzyloxy)-3-methoxyphenyl)methyl-6,7-dimethoxyisoquinolinium chloride], the IC50 in data set [1] is < 5 µM. For the same compound, in data set [2] (setting [6]), the “Relative Activity” value stood at 1. The MIC in the data set on various kinds of Candida (C. albicans ATCC 11651) is 3.12 µg/mL; against various kinds of Candida (C. albicans ATCC 28838) it was 3.12 µg/mL; in the data set with various kinds of Candida (C. albicans IFO 1385) it was 6.25 µg/mL; against various kinds of Candida (C. albicans OY-003) it was 1.56 µg/mL; in the data set on various kinds of Candida (C. albicans OY-019), 3.12 µg/mL; in the data set on various kinds of Candida (C. albicans U.K), 1.56 µg/mL. In addition, the MIC against various kinds of Candida (C. glabrata) amounted to 3.25 µg/mL; against various kinds of Candida (C. glulliermondi) it was 1.56 µg/mL; with various kinds of Candida (C. krusei (KCTC7273)) it was 1.56 µg/mL; in the data set on various kinds of Candida (C. parapsilosis), 12.5 µg/mL.

The IC50 is the midpoint of a concentration-inhibition curve. What is called MIC is the lowest concentration found to suppress growth. Lower therefore signals a more susceptible organism. As a reminder, the LD50 is the dose at which mortality reaches 50%.
